Results published in patent US11731943B2, “Therapeutic compounds, compositions and methods of use thereof” (priority 2016, dated 2023).
pIC50, pKi: −log10 of the molar value. Read-outs that look alike come from different tables or passages of the source.

What was measured:
[1] = molecular target: isolated recombinant JAK1 kinase domain (Homo sapiens (Human), UniProt P23458); test: JAK1 enzyme assay (Caliper LabChip, Ki); type: biochemical
Summary of the method: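 Recombinant human JAK1 kinase domain phosphorylating an N-terminally 5-carboxyfluorescein-labelled JAK3-derived peptide, 30 min at 22 °C, stopped with EDTA (50 mM final). Phosphorylated fraction of total peptide read by Caliper LabChip mobility shift; Ki from Morrison tight-binding fit corrected for ATP competition (Ki=Ki,app/(1+[ATP]/Km,app)).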

[2] = test system: JAK1-dependent STAT6 phosphorylation downstream of IL-13 stimulation in BEAS-2B human bronchial epithelial cells; test: JAK1 pathway assay in BEAS-2B cells (IL-13-pSTAT6, MSD); type: cell-based; conditions: BEAS-2B cells, IL-13 stimulation, read-out: IL-13 p-STAT6 BEAS-2B IC50
[3] = molecular target: isolated recombinant JAK2 kinase domain (Homo sapiens (Human), UniProt O60674); test: JAK2 enzyme assay (Caliper LabChip, Ki); type: biochemical
Chain of isolated recombinant JAK2 kinase domain (O60674 849-1124): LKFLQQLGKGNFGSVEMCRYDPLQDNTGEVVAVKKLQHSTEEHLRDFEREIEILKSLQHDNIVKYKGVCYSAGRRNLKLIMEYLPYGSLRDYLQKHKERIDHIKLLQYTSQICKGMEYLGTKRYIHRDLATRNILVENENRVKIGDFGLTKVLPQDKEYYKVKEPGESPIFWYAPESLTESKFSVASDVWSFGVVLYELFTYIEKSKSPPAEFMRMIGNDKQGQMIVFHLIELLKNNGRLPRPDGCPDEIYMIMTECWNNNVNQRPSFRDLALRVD
Summary of the method: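 Recombinant human JAK1 or JAK2 kinase domain phosphorylating a 5-carboxyfluorescein-labelled JAK3-derived peptide; 30 min at 22 °C, stopped with EDTA (50 mM final). Phosphorylated product measured as a fraction of total peptide by Caliper LabChip mobility shift.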

Chain of isolated recombinant JAK1 kinase domain (P23458 875-1153): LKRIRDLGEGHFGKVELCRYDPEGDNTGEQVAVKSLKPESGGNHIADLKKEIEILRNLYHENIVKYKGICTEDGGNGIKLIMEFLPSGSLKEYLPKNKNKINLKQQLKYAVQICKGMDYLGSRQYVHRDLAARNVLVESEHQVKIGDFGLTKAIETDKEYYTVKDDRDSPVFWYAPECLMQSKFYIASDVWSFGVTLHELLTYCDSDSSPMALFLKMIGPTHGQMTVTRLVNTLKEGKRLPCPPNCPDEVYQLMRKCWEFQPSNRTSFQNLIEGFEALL

CCOP(=O)(OCC)c1ccc(Nc2nn([C@]3(CC#N)CC[C@@H](N4CC(C(F)(F)F)C4)CC3)cc2C(N)=O)cc1 [Example 303, Diethyl (4-((4-carbamoyl-1-((1R,4R)-1-(cyanomethyl)-4-(3-(trifluoromethyl)azetidin-1-yl)cyclohexyl)-1H-pyrazol-3-yl)amino)phenyl)phosphonate]
pKi ([1]; read-out: JAK1 Ki): 9.41
pIC50 ([2]; Homo sapiens, BEAS-2B): 7.47
pKi [3]: 9.18

Cc1cc(CN2CCC(CC#N)(n3cc(C(N)=O)c(NC(=O)C4CC4)n3)CC2)ccc1-c1ccccc1 [Example 160, 1-[4-(cyanomethyl)-1-[(3-methyl-4-phenyl-phenyl)methyl]-4-piperidyl]-3-(cyclopropanecarbonylamino) pyrazole-4-carboxamide]
pKi ([1]; read-out: JAK1 Ki): 8.49
pIC50 ([2]; Homo sapiens, BEAS-2B): 6.73
pKi [3]: 7.92

COC(=O)Nc1nn(C2(CC#N)CCN(Cc3ccc(-c4ccccc4)nc3F)CC2)cc1C(N)=O [Example 198, methyl N-[4-carbamoyl-1-[4-(cyanomethyl)-1-[(2-fluoro-6-phenyl-3-pyridyl)methyl]-4-piperidyl]pyrazol-3-yl]carbamate]
pKi ([1]; read-out: JAK1 Ki): 8.92
pIC50 ([2]; Homo sapiens, BEAS-2B): 7.13
pKi [3]: 8.42

CCC1(n2cc(C(N)=O)c(Nc3ccc(S(=O)(=O)C(F)F)cc3)n2)CCN(Cc2cc(O)ccc2F)CC1 [Example 301, 3-((4-((Difluoromethyl)sulfonyl)phenyl)amino)-1-(4-ethyl-1-(2-fluoro-5-hydroxybenzyl)piperidin-4-yl)-1H-pyrazole-4-carboxamide]
pKi ([1]; read-out: JAK1 Ki): 8.82
pIC50 ([2]; Homo sapiens, BEAS-2B): 7.00
pKi [3]: 8.70

N#CC[C@]1(n2cc(C(N)=O)c(NC(=O)C3CC3)n2)CCN(Cc2ccc(-c3ccccc3)cc2)C[C@@H]1F (single isomer, unassigned) [Example 12]
pKi ([1]; read-out: JAK1 Ki): 8.89
pIC50 ([2]; Homo sapiens, BEAS-2B): 6.99
pKi [3]: 8.17

N#CCC1(n2cc(C(N)=O)c(NC(=O)OC3CC3)n2)CCN(Cc2ccc(-c3ccccc3)c(O)c2)CC1 [Example 209, cyclopropyl N-[4-carbamoyl-1-[4-(cyanomethyl)-1-[(3-hydroxy-4-phenyl-phenyl)methyl]-4-piperidyl]pyrazol-3-yl]carbamate]
pKi ([1]; read-out: JAK1 Ki): 9.31
pIC50 ([2]; Homo sapiens, BEAS-2B): 7.01
pKi [3]: 8.42

COC(=O)Nc1nn(C2(CC#N)CCN(Cc3ccc(-n4nccn4)c(O)c3)CC2F)cc1C(N)=O (stereo not drawn) [Example 287, methyl N-[4-carbamoyl-1-[4-(cyanomethyl)-3-fluoro-1-[[3-hydroxy-4-(triazol-2-yl)phenyl]methyl]-4-piperidyl]pyrazol-3-yl]carbamate]
pKi ([1]; read-out: JAK1 Ki): 9.46
pIC50 ([2]; Homo sapiens, BEAS-2B): 7.49
pKi [3]: 9.37

COC(=O)Nc1nn(C2(CC#N)CCN(Cc3cc(O)c(-c4ccccc4)cc3F)CC2F)cc1C(N)=O (stereo not drawn) [Example 208, methyl N-[4-carbamoyl-1-[4-(cyanomethyl)-3-fluoro-1-[(2-fluoro-5-hydroxy-4-phenyl-phenyl)methyl]-4-piperidyl]pyrazol-3-yl]carbamate]
pKi ([1]; read-out: JAK1 Ki): 9.77
pIC50 ([2]; Homo sapiens, BEAS-2B): 7.55
pKi [3]: 9.68

C#Cc1ccc(CN2CCC(CC#N)(n3cc(C(N)=O)c(NC(=O)OC)n3)C(F)C2)c(F)c1 (stereo not drawn) [Example 297, methyl N-[4-carbamoyl-1-[4-(cyanomethyl)-1-[(4-ethynyl-2-fluoro-phenyl)methyl]-3-fluoro-4-piperidyl]pyrazol-3-yl]carbamate]
pKi ([1]; read-out: JAK1 Ki): 9.28
pIC50 ([2]; Homo sapiens, BEAS-2B): 7.21
pKi [3]: 9.12

COC(=O)Nc1nn(C2(CC#N)CCN(Cc3ccc(-n4nccn4)cc3)CC2F)cc1C(N)=O (stereo not drawn) [Example 200, methyl N-[4-carbamoyl-1-[4-(cyanomethyl)-3-fluoro-1-[[4-(triazol-2-yl)phenyl]methyl]-4-piperidyl]pyrazol-3-yl]carbamate]
pKi ([1]; read-out: JAK1 Ki): 9.29
pIC50 ([2]; Homo sapiens, BEAS-2B): 7.41
pKi [3]: 9.02

C#Cc1ccc(CN2CCC(CC#N)(n3cc(C(N)=O)c(NC(=O)OC)n3)C(F)C2)cc1 (stereo not drawn) [Example 270, methyl N-[4-carbamoyl-1-[4-(cyanomethyl)-1-[(4-ethynylphenyl)methyl]-3-fluoro-4-piperidyl]pyrazol-3-yl]carbamate]
pKi ([1]; read-out: JAK1 Ki): 9.39
pIC50 ([2]; Homo sapiens, BEAS-2B): 7.68
pKi [3]: 9.05

N#CCC1(n2cc(C(N)=O)c(NC(=O)C3CC3)n2)CCN(Cc2ccc(-c3ccoc3)cc2)CC1F (stereo not drawn) [Example 214, 1-[4-(cyanomethyl)-3-fluoro-1-[[4-(3-furyl)phenyl]methyl]-4-piperidyl]-3-(cyclopropanecarbonylamino) pyrazole-4-carboxamide]
pKi ([1]; read-out: JAK1 Ki): 9.51
pIC50 ([2]; Homo sapiens, BEAS-2B): 7.38
pKi [3]: 9.21

N#CCC1(n2cc(C(N)=O)c(NC(=O)C3CC3C#N)n2)CCN(CC2CCC(c3ccccc3)CC2)CC1F (stereo not drawn) [Example 230, 3-[(2-cyanocyclopropanecarbonyl)amino]-1-[4-(cyanomethyl)-3-fluoro-1-[(4-phenylcyclohexyl)methyl]-4-piperidyl]pyrazole-4-carboxamide]
pKi ([1]; read-out: JAK1 Ki): 9.29
pIC50 [2]: 7.22
pKi [3]: 8.74

CN(CC(F)(F)F)[C@H]1CC[C@](CC#N)(n2cc(C(N)=O)c(NC(=O)C3CC3)n2)CC1 [Example 129]
pKi [1]: 8.48
pIC50 ([2]; Homo sapiens, BEAS-2B): 6.41
pKi [3]: 7.79

C#Cc1ccc(NC2CCC(CC#N)(n3cc(C(N)=O)c(NC(=O)C4CC4)n3)CC2)cc1 (stereo not drawn) [Example 279, 1-[1-(cyanomethyl)-4-(4-ethynylanilino)cyclohexyl]-3-(cyclopropanecarbonylamino) pyrazole-4-carboxamide]
pKi ([1]; read-out: JAK1 Ki): 8.92
pIC50 ([2]; Homo sapiens, BEAS-2B): 7.04
pKi [3]: 7.85

N#CCC1(n2cc(C(N)=O)c(NC(=O)C3CC3C#N)n2)CCN(CC2CCC(c3ccccc3)CC2)CC1F (stereo not drawn) [Example 228, 3-[(2-cyanocyclopropanecarbonyl)amino]-1-[4-(cyanomethyl)-3-fluoro-1-[(4-phenylcyclohexyl)methyl]-4-piperidyl]pyrazole-4-carboxamide]
pKi ([1]; read-out: JAK1 Ki): 8.82
pIC50 [2]: 7.11
pKi [3]: 8.11

CC(=O)Nc1cc(CN2CCC(CC#N)(n3cc(C(N)=O)c(NC(=O)C4CC4)n3)CC2)ccc1Cl [Example 81]
pKi ([1]; read-out: JAK1 Ki): 8.36
pIC50 ([2]; Homo sapiens, BEAS-2B): < 6.00
pKi [3]: 7.42

Cc1ccc(-c2ccc(CN3CCC(CC#N)(n4cc(C(N)=O)c(NC(=O)C5CC5)n4)C(F)C3)cc2)o1 (stereo not drawn) [Example 223, 1-[4-(cyanomethyl)-3-fluoro-1-[[4-(5-methyl-2-furyl)phenyl]methyl]-4-piperidyl]-3-(cyclopropanecarbonylamino) pyrazole-4-carboxamide]
pKi ([1]; read-out: JAK1 Ki): 9.42
pIC50 ([2]; Homo sapiens, BEAS-2B): 7.92
pKi [3]: 9.47

CC#Cc1ccc(CN2CCC(CC#N)(n3cc(C(N)=O)c(NC(=O)OC)n3)C(F)C2)cc1 (stereo not drawn) [Example 298, Methyl (4-carbamoyl-1-(4-(cyanomethyl)-3-fluoro-1-(4-(prop-1-yn-1-yl)benzyl)piperidin-4-yl)-1H-pyrazol-3-yl)carbamate]
pKi ([1]; read-out: JAK1 Ki): 9.22
pIC50 ([2]; Homo sapiens, BEAS-2B): 7.54
pKi [3]: 9.24

COc1cccc(-c2ccc(CN3CCC(CC#N)(n4cc(C(N)=O)c(NC(=O)C5CC5)n4)CC3)cc2)c1 [Example 152, 1-[4-(cyanomethyl)-1-[[4-(3-methoxyphenyl)phenyl]methyl]-4-piperidyl]-3-(cyclopropanecarbonylamino) pyrazole-4-carboxamide]
pKi ([1]; read-out: JAK1 Ki): 8.89
pIC50 ([2]; Homo sapiens, BEAS-2B): 6.90
pKi [3]: 8.11

COC(=O)Nc1nn(C2(CC#N)CCN(Cc3c(F)cc(-c4ccccc4)c(O)c3F)CC2F)cc1C(N)=O (stereo not drawn) [Example 248, Methyl N-[4-carbamoyl-1-[4-(cyanomethyl)-1-[(2,6-difluoro-3-hydroxy-4-phenylphenyl)methyl]-3-fluoropiperidin-4-yl]-1H-pyrazol-3-yl]carbamate]
pKi ([1]; read-out: JAK1 Ki): 9.55
pIC50 ([2]; Homo sapiens, BEAS-2B): 7.52
pKi [3]: 9.60

N#CCC1(n2cc(C(N)=O)c(NC(=O)C3CC3)n2)CCN(Cc2ccccc2C#N)CC1 [Example 64]
pKi ([1]; read-out: JAK1 Ki): 8.14
pIC50 ([2]; Homo sapiens, BEAS-2B): < 6.00
pKi [3]: 7.08

COC(=O)Nc1nn(C2(CC#N)CCN(Cc3ccc(-c4ccccc4)nc3F)CC2F)cc1C(N)=O (stereo not drawn) [Example 203, methyl N-[4-carbamoyl-1-[4-(cyanomethyl)-3-fluoro-1-[(2-fluoro-6-phenyl-3-pyridyl)methyl]-4-piperidyl]pyrazol-3-yl]carbamate]
pKi ([1]; read-out: JAK1 Ki): 9.60
pIC50 ([2]; Homo sapiens, BEAS-2B): 7.82
pKi [3]: 9.66

COC(=O)Nc1nn(C2(CC#N)CCN(Cc3cc(O)ccc3Cl)CC2F)cc1C(N)=O (stereo not drawn) [Example 273, methyl N-[4-carbamoyl-1-[1-[(2-chloro-5-hydroxy-phenyl)methyl]-4-(cyanomethyl)-3-fluoro-4-piperidyl]pyrazol-3-yl]carbamate]
pKi ([1]; read-out: JAK1 Ki): 9.48
pIC50 ([2]; Homo sapiens, BEAS-2B): 7.12
pKi [3]: 9.51

N#CCC1(n2cc(C(N)=O)c(NC(=O)C3CC3)n2)CCN(Cc2ccc(C3=CCCCC3)cc2)CC1F (stereo not drawn) [Example 229, 1-[4-(cyanomethyl)-1-[[4-(cyclohexen-1-yl)phenyl]methyl]-3-fluoro-4-piperidyl]-3-(cyclopropanecarbonylamino) pyrazole-4-carboxamide]
pKi ([1]; read-out: JAK1 Ki): 9.32
pIC50 ([2]; Homo sapiens, BEAS-2B): 7.60
pKi [3]: 9.11

COC(=O)Nc1nn(C2(CC#N)CCN(Cc3cc(O)c(C)cc3F)CC2F)cc1C(N)=O (stereo not drawn) [Example 292, methyl N-[4-carbamoyl-1-[4-(cyanomethyl)-3-fluoro-1-[(2-fluoro-5-hydroxy-4-methyl-phenyl)methyl]-4-piperidyl]pyrazol-3-yl]carbamate]
pKi ([1]; read-out: JAK1 Ki): 9.26
pIC50 ([2]; Homo sapiens, BEAS-2B): 7.31
pKi [3]: 9.15

CS(=O)(=O)Nc1cc(CN2CCC(CC#N)(n3cc(C(N)=O)c(NC(=O)C4CC4)n3)CC2)ccc1F [Example 79]
pKi ([1]; read-out: JAK1 Ki): 8.52
pIC50 ([2]; Homo sapiens, BEAS-2B): < 6.00
pKi [3]: 7.85
